{
  "source": "patent US20020041862A1",
  "about": "(priority 1999, published 2002)",
  "key": {"PrP^Sc in ScN2a cells [1]": {"target": "T1, PrP^Sc in ScN2a cells (Mus musculus, UniProt P04925)", "T1 sequence (P04925 23-230 limits assumed)": "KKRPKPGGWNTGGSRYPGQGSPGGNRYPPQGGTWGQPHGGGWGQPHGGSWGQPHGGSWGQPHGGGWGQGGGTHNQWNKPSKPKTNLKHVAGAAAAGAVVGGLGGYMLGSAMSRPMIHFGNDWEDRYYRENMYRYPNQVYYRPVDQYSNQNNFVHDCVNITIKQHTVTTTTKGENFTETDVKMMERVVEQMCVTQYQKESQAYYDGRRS", "conditions": "cited from earlier work"}, "PrP^Sc in ScN2a cells [2]": {"target": "T1, PrP^Sc in ScN2a cells", "conditions": "cited from earlier work", "remark": "listed apart in the source"}, "PrP^Sc in ScN2a cells [3]": {"target": "T1, PrP^Sc in ScN2a cells", "assay_type": "cell-based"}},
  "note": "“Also recorded” adds a separate entry of the source.",
  "data": [
    {"compound": "C[S+](C)[O-]", "note": "[DMSO, dimethyl sulfoxide]", "values": [
      {"measurement": "reduction of pre-existing PrP^Sc levels", "setting": "PrP^Sc in ScN2a cells [1]", "result": "cannot reduce pre-existing PrP^Sc levels"},
      {"measurement": "formation of PrP^Sc", "setting": "PrP^Sc in ScN2a cells [2]", "result": "inhibit the formation of new PrP^Sc"}
    ]},
    {"compound": "CCN(CC)CCCC(C)Nc1ccnc2cc(Cl)ccc12", "note": "(centres unmarked) [chloroquine]", "values": [
      {"measurement": "effect of lysosomotropic agent alone on PrP^Sc levels", "setting": "PrP^Sc in ScN2a cells [1]", "result": "have no effect on PrP^Sc levels"},
      {"measurement": "formation of PrP^Sc", "setting": "PrP^Sc in ScN2a cells [2]", "result": "do not interfere with the formation of PrP^Sc"},
      {"measurement": "effect of lysosomotropic agent on ability of PEI to eliminate PrP^Sc", "setting": "PrP^Sc in ScN2a cells [3]", "result": "blocked the ability of PEI to eliminate PrP^Sc; also recorded: clear bands for PrP^Sc"}
    ]},
    {"compound": "OCC(O)CO", "note": "[glycerol]", "values": [
      {"measurement": "reduction of pre-existing PrP^Sc levels", "setting": "PrP^Sc in ScN2a cells [1]", "result": "cannot reduce pre-existing PrP^Sc levels"},
      {"measurement": "formation of PrP^Sc", "setting": "PrP^Sc in ScN2a cells [2]", "result": "inhibit the formation of new PrP^Sc"}
    ]},
    {"compound": "CC[C@@]1([C@@H]2O[C@@H]([C@H]3O[C@@](O)(CO)[C@H](C)C[C@@H]3C)C[C@@H]2C)CC[C@H]([C@]2(C)CC[C@]3(C[C@H](O)[C@@H](C)[C@@H]([C@@H](C)[C@@H](OC)[C@H](C)C(=O)O)O3)O2)O1", "note": "[monensin]", "values": [
      {"measurement": "formation of PrP^Sc", "setting": "PrP^Sc in ScN2a cells [2]", "result": "do not interfere with the formation of PrP^Sc"}
    ]},
    {"compound": "NH4Cl", "values": [
      {"measurement": "effect of lysosomotropic agent alone on PrP^Sc levels", "setting": "PrP^Sc in ScN2a cells [1]", "result": "have no effect on PrP^Sc levels"},
      {"measurement": "formation of PrP^Sc", "setting": "PrP^Sc in ScN2a cells [2]", "result": "do not interfere with the formation of PrP^Sc"},
      {"measurement": "effect of lysosomotropic agent on ability of PEI to eliminate PrP^Sc", "setting": "PrP^Sc in ScN2a cells [3]", "result": "failure of NH4Cl to affect PrP^Sc levels; also recorded: barely detectable amounts of PrP^Sc"}
    ]}
  ]
}
